Laboratory results: patent publication US9850283B2, “Macrocyclic inhibitors of the PD-1/PD-L1 and CD80(B7-1)/PD-L1 protein/protein interactions” (BRISTOL-MYERS SQUIBB COMPANY, priority 2013, dated 2017)
pIC50: −log10 of the molar value. Like-named read-outs stand apart in the source and are kept apart here. Positions of bridges follow the written chain, without caps; N, C: chain ends. Non-standard residues stand in square brackets, D forms with d. Residues, ends and D or L forms follow the SMILES beside them. ξ: configuration not given here. Pro(trans-4-Ph) = O=C(O)[C@@H]1C[C@@H](c2ccccc2)CN1; Pro(4R-Bn) = O=C(O)[C@@H]1C[C@@H](Cc2ccccc2)CN1; Phe(2,4-Cl2) = N[C@@H](Cc1ccc(Cl)cc1Cl)C(=O)O; ξTrp(5-F) = NC(Cc1c[nH]c2ccc(F)cc12)C(=O)O; Phe(3-OMe) = COc1cccc(C[C@H](N)C(=O)O)c1; Phe(3-Me) = Cc1cccc(C[C@H](N)C(=O)O)c1; Bta = N[C@@H](Cc1csc2ccccc12)C(=O)O; Hyp = O=C(O)[C@@H]1C[C@@H](O)CN1; NMeF = CN[C@@H](Cc1ccccc1)C(=O)O; Pip(4-aza) = O=C(O)[C@@H]1CNCCN1; dNMeNle = CCCC[C@@H](NC)C(=O)O; NMeNle = CCCC[C@H](NC)C(=O)O; NMeA = CN[C@@H](C)C(=O)O; Orn = NCCC[C@H](N)C(=O)O; dDap = NC[C@@H](N)C(=O)O; Dab = NCC[C@H](N)C(=O)O; Dap = NC[C@H](N)C(=O)O; ξP = O=C(O)C1CCCN1; ξC = NC(CS)C(=O)O; Sar = CNCC(=O)O

Experiments:
[1] = biological target: T1, LK35.2-hPD-L1 cells / PE-labeled PD-1-Ig (Homo sapiens, UniProt Q9NZQ7); assay: LK35.2-hPD-L1 cell binding high-content screening assay; type: cell-based; conditions: cluster symbol, read-out: CBA IC50 cluster
T1 construct: expressed in transfected cells; host or cells: LK35.2 mouse B cell line
T1 sequence (Q9NZQ7 19-290): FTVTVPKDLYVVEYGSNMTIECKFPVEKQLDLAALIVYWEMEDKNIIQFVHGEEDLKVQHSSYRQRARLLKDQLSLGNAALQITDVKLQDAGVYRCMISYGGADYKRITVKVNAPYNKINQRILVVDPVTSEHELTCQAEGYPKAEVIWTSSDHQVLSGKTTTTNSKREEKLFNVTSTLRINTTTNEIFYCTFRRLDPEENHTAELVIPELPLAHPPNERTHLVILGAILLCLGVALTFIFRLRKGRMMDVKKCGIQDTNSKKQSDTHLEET
Summary of the method: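 Mouse LK35.2 B cells stably overexpressing human PD-L1 were cultured overnight in RPMI with 10% FCS, then given compound and PE-labeled human PD-1-Ig (1 nM final) for 1 h at 37 °C. After three dPBS washes, bound fluorescence was quantified by high-content imaging.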

Human PD-L1/PD-1 = biological target: T2, Human PD-L1/PD-1 (Homo sapiens, UniProt Q9NZQ7); assay: HTRF PD-1-Ig/PD-L1-His binding assay (human PD-L1); conditions: cluster symbol; read-out: HTRF IC50 cluster
T2 construct: made in house; host or cells: HEK293T
T2 sequence (Q9NZQ7 with tags, fused parts or gaps): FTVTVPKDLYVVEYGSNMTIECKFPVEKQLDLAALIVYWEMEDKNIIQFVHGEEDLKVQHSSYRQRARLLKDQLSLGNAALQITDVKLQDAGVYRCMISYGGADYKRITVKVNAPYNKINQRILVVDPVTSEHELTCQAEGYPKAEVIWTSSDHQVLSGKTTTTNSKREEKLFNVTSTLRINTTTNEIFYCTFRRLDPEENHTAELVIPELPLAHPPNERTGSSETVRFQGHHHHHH
Summary of the method: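 Soluble PD-1-Ig binding to PD-L1-His measured by HTRF in dPBS with 0.1% BSA and 0.05% Tween-20. Detection used europium cryptate anti-Ig antibody (1 nM final) and APC anti-His antibody (20 nM final) added on top of the binding reaction.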

[2] = cell line of CBA not given (LK35.2-hPD-L1 or 293T-hPD-L1)
[3] = cell binding assay, cell line not given

| SMILES | pIC50 [1, 2] | pIC50 (Human PD-L1/PD-1) | pIC50 [1, 3] |
| --- | --- | --- | --- |
| CCCC[C@H]1C(=O)N(C)[C@@H](CCCC)C(=O)N[C@@H](CCCNC(=N)N)C(=O)N[C@H](C(=O)NCC(N)=O)CSCC(=O)N[C@@H](Cc2ccccc2)C(=O)N(C)[C@@H](C)C(=O)N[C@@H](CC(N)=O)C(=O)N2CCC[C@H]2C(=O)N[C@@H](Cc2cnc[nH]2)C(=O)N[C@@H](CC(C)C)C(=O)N(C)CC(=O)N[C@@H](Cc2c[nH]c3ccccc23)C(=O)N[C@@H](CO)C(=O)NC(Cc2c[nH]c3ccc(F)cc23)C(=O)N1C (stereo partly shown) [Example 1039] ({CH2CO}-F[NMeA]NPHL[Sar]WS[ξTrp(5-F)][NMeNle][NMeNle]RCG-NH2; thioether N-14) | 7.14 to 8.32 | < 7.52 | – |
| CCCC[C@H]1C(=O)N(C)[C@@H](CCCC)C(=O)N[C@@H](CCCNC(=N)N)C(=O)N[C@H](C(=O)NCC(N)=O)CSCC(=O)N[C@@H](Cc2ccccc2)C(=O)N(C)[C@@H](C)C(=O)N[C@@H](CC(N)=O)C(=O)N2CCC[C@H]2C(=O)N[C@@H](Cc2cnc[nH]2)C(=O)N[C@@H](CC(C)C)C(=O)N(C)CC(=O)N[C@@H](Cc2cccc(C)c2)C(=O)N[C@@H](CO)C(=O)N[C@@H](Cc2c[nH]c3ccccc23)C(=O)N1C [Example 1086] ({CH2CO}-F[NMeA]NPHL[Sar][Phe(3-Me)]SW[NMeNle][NMeNle]RCG-NH2; thioether N-14) | < 7.13 | < 7.52 | – |
| CCCC[C@H]1C(=O)N(C)[C@@H](CCCC)C(=O)N[C@@H](CC(=O)O)C(=O)N[C@H](C(=O)NCC(N)=O)CSCC(=O)N[C@@H](Cc2ccc(O)cc2)C(=O)N(C)[C@@H](C)C(=O)N[C@@H](CC(=O)O)C(=O)N2CCC[C@H]2C(=O)N[C@@H](Cc2c[nH]cn2)C(=O)N[C@@H](CCCCN)C(=O)N2C[C@H](O)C[C@H]2C(=O)N[C@@H](Cc2c[nH]c3ccccc23)C(=O)N[C@@H](CCCCN)C(=O)N[C@@H](Cc2c[nH]c3ccccc23)C(=O)N1C [Example 5096] ({CH2CO}-Y[NMeA]DPHK[Hyp]WKW[NMeNle][NMeNle]DCG-NH2; thioether N-14) | – | 8.17 to 9.41 | 8.33 to 9.80 |
| CCCC[C@@H]1C(=O)N(C)[C@H](CCCC)C(=O)N[C@@H](CCCN)C(=O)N[C@@H](C(=O)NCC(N)=O)CSCC(=O)N[C@@H](Cc2ccc(O)cc2)C(=O)N2CCCC2C(=O)N[C@H](CC(=O)O)C(=O)N2CCC[C@H]2C(=O)N[C@H](CN)C(=O)N[C@@H](CCC(=O)O)C(=O)N2CCCC2C(=O)N[C@H](Cc2c[nH]c3ccccc23)C(=O)N[C@@H](CCN)C(=O)N[C@@H](Cc2c[nH]c3ccccc23)C(=O)N1C (stereo partly shown) [Example 1214] ({CH2CO}-Y[ξP][dD]P[dDap]E[ξP][dW][Dab]W[dNMeNle][dNMeNle][Orn][dC]G-NH2; thioether N-14) | 7.14 to 8.32 | 7.52 to 8.17 | – |
| CCCC[C@H]1C(=O)N(C)[C@@H](CCCC)C(=O)N[C@@H](CCCN)C(=O)N[C@H](C(=O)NCC(N)=O)CSCC(=O)N[C@@H](Cc2ccc(O)cc2)C(=O)N(C)[C@@H](C)C(=O)N[C@@H](CC(N)=O)C(=O)N2CCC[C@H]2C(=O)N[C@@H](CN)C(=O)N[C@@H](CC(C)C)C(=O)N2C[C@H](c3ccccc3)C[C@H]2C(=O)N[C@@H](Cc2c[nH]c3ccccc23)C(=O)N[C@@H](CO)C(=O)N[C@@H](Cc2c[nH]c3ccccc23)C(=O)N1C [Example 14001] ({CH2CO}-Y[NMeA]NP[Dap]L[Pro(trans-4-Ph)]WSW[NMeNle][NMeNle][Orn]CG-NH2; thioether N-14) | – | 8.17 to 9.41 | 8.33 to 9.80 |
| CCCC[C@H]1C(=O)N(C)[C@@H](CCCC)C(=O)N[C@@H](CCCN)C(=O)N[C@H](C(=O)NCC(N)=O)CSCC(=O)N[C@@H](Cc2ccc(O)cc2)C(=O)N(C)[C@@H](C)C(=O)N[C@@H](CC(N)=O)C(=O)N2CCC[C@H]2C(=O)N[C@@H](CN)C(=O)N[C@@H](CC(C)C)C(=O)N2C[C@H](Cc3ccccc3)C[C@H]2C(=O)N[C@@H](Cc2c[nH]c3ccccc23)C(=O)N[C@@H](CO)C(=O)N[C@@H](Cc2c[nH]c3ccccc23)C(=O)N1C [Example 13009] ({CH2CO}-Y[NMeA]NP[Dap]L[Pro(4R-Bn)]WSW[NMeNle][NMeNle][Orn]CG-NH2; thioether N-14) | – | 8.17 to 9.41 | 8.33 to 9.80 |
| CCCC[C@H]1C(=O)N(C)CC(=O)N[C@@H](CN)C(=O)N[C@@H](C(C)C)C(=O)N(C)[C@@H](Cc2ccccc2)C(=O)N[C@@H](Cc2ccc(O)cc2)C(=O)N(C)CC(=O)N[C@@H](Cc2c[nH]c3ccccc23)C(=O)N[C@@H](Cc2ccc(O)cc2)C(=O)N[C@@H](CC(C)C)C(=O)N[C@H](C(=O)NCC(N)=O)CSCC(=O)N[C@@H](Cc2ccccc2)C(=O)N(C)[C@@H](Cc2ccccc2)C(=O)N1C [Example 3152] ({CH2CO}-F[NMeF][NMeNle][Sar][Dap]V[NMeF]Y[Sar]WYLCG-NH2; thioether N-13) | 7.14 to 8.32 | 7.52 to 8.17 | – |
| CCCC[C@H]1C(=O)N(C)[C@@H](CCCC)C(=O)N[C@@H](CCCNC(=N)N)C(=O)N[C@H](C(=O)NCC(N)=O)CSCC(=O)N[C@@H](Cc2ccccc2)C(=O)N(C)[C@@H](C)C(=O)N[C@@H](CC(N)=O)C(=O)N2CCC[C@H]2C(=O)N[C@@H](CCCCN)C(=O)N[C@@H](CC(C)C)C(=O)N(C)CC(=O)N[C@@H](Cc2c[nH]c3ccccc23)C(=O)N[C@@H](CO)C(=O)N[C@@H](Cc2c[nH]c3ccccc23)C(=O)N1C [Example 1077] ({CH2CO}-F[NMeA]NPKL[Sar]WSW[NMeNle][NMeNle]RCG-NH2; thioether N-14) | < 7.13 | 7.52 to 8.17 | – |
| CCCC[C@H]1C(=O)N(C)[C@@H](CCCC)C(=O)N[C@@H](CCCNC(=N)N)C(=O)NC(C(=O)NCC(N)=O)CSCC(=O)N[C@@H](Cc2ccc(O)cc2)C(=O)N(C)[C@@H](C)C(=O)N[C@@H](CC(N)=O)C(=O)N2CCC[C@H]2C(=O)N[C@@H](CO)C(=O)N[C@@H](CC(C)C)C(=O)N2C[C@H](O)C[C@H]2C(=O)N[C@@H](Cc2c[nH]c3ccccc23)C(=O)N[C@@H](CO)C(=O)N[C@@H](Cc2csc3ccccc23)C(=O)N1C (stereo partly shown) [Example 9071] ({CH2CO}-Y[NMeA]NPSL[Hyp]WS[Bta][NMeNle][NMeNle]R[ξC]G-NH2; thioether N-14) | – | 8.17 to 9.41 | 8.33 to 9.80 |
| CCCC[C@H]1C(=O)N(C)[C@@H](CCCC)C(=O)N[C@@H](CCCNC(=N)N)C(=O)N[C@H](C(=O)NCC(N)=O)CSCC(=O)N[C@@H](Cc2ccccc2)C(=O)N(C)[C@@H](C)C(=O)N[C@@H](CC(N)=O)C(=O)N2CCC[C@H]2C(=O)N[C@@H](Cc2cnc[nH]2)C(=O)N[C@@H](CC(C)C)C(=O)N(C)CC(=O)N[C@@H](Cc2cccc(OC)c2)C(=O)N[C@@H](CO)C(=O)N[C@@H](Cc2c[nH]c3ccccc23)C(=O)N1C [Example 1085] ({CH2CO}-F[NMeA]NPHL[Sar][Phe(3-OMe)]SW[NMeNle][NMeNle]RCG-NH2; thioether N-14) | < 7.13 | < 7.52 | – |
| CCCC[C@H]1C(=O)N(C)[C@@H](CCCC)C(=O)N[C@@H](CC(C)C)C(=O)N[C@H](C(=O)NCC(N)=O)CSCC(=O)N[C@@H](Cc2ccc(O)cc2)C(=O)N(C)[C@@H](C)C(=O)N[C@@H](CC(N)=O)C(=O)N2CCC[C@H]2C(=O)N[C@@H](CN)C(=O)N[C@@H](CC(C)C)C(=O)N2CCNC[C@H]2C(=O)N[C@@H](Cc2c[nH]c3ccccc23)C(=O)N[C@@H](CCN)C(=O)N[C@@H](Cc2c[nH]c3ccccc23)C(=O)N1C [Example 6050] ({CH2CO}-Y[NMeA]NP[Dap]L[Pip(4-aza)]W[Dab]W[NMeNle][NMeNle]LCG-NH2; thioether N-14) | – | 8.17 to 9.41 | 7.14 to 8.32 |
| CCCC[C@H]1C(=O)N(C)[C@@H](CCCC)C(=O)N[C@@H](CCCN)C(=O)N[C@H](C(=O)NCC(N)=O)CSCC(=O)N[C@@H](Cc2ccc(O)cc2)C(=O)N(C)[C@@H](C)C(=O)N[C@@H](CC(=O)O)C(=O)N2CCC[C@H]2C(=O)N[C@@H](CN)C(=O)N[C@@H](CCC(N)=O)C(=O)N2C[C@H](O)C[C@H]2C(=O)N[C@@H](Cc2c[nH]c3ccccc23)C(=O)N[C@@H](CCN)C(=O)N[C@@H](Cc2csc3ccccc23)C(=O)N1C [Example 1182] ({CH2CO}-Y[NMeA]DP[Dap]Q[Hyp]W[Dab][Bta][NMeNle][NMeNle][Orn]CG-NH2; thioether N-14) | 8.33 to 9.80 | 8.17 to 9.41 | – |
| CCCC[C@H]1C(=O)N(C)[C@@H](CCCC)C(=O)N[C@@H](CCCNC(=N)N)C(=O)N[C@H](C(=O)NCC(N)=O)CSCC(=O)N[C@@H](Cc2ccccc2)C(=O)N(C)[C@@H](C)C(=O)N[C@@H](CC(N)=O)C(=O)N2CCC[C@H]2C(=O)N[C@@H](Cc2cnc[nH]2)C(=O)N[C@@H](Cc2ccc(O)cc2)C(=O)N(C)CC(=O)N[C@@H](Cc2c[nH]c3ccccc23)C(=O)N[C@@H](CO)C(=O)N[C@@H](Cc2c[nH]c3ccccc23)C(=O)N1C [Example 6014] ({CH2CO}-F[NMeA]NPHY[Sar]WSW[NMeNle][NMeNle]RCG-NH2; thioether N-14) | – | 7.52 to 8.17 | 7.14 to 8.32 |
| CCCC[C@H]1C(=O)N(C)[C@@H](CCCC)C(=O)N[C@@H](CCCNC(=N)N)C(=O)N[C@H](C(=O)NCC(N)=O)CSCC(=O)N[C@@H](Cc2ccc(Cl)cc2Cl)C(=O)N(C)[C@@H](C)C(=O)N[C@@H](CC(N)=O)C(=O)N2CCC[C@H]2C(=O)N[C@@H](Cc2cnc[nH]2)C(=O)N[C@@H](CC(C)C)C(=O)N2C[C@H](O)C[C@H]2C(=O)N[C@@H](Cc2c[nH]c3ccccc23)C(=O)N[C@@H](CO)C(=O)N[C@@H](Cc2c[nH]c3ccccc23)C(=O)N1C [Example 7062] ({CH2CO}-[Phe(2,4-Cl2)][NMeA]NPHL[Hyp]WSW[NMeNle][NMeNle]RCG-NH2; thioether N-14) | – | 8.17 to 9.41 | 7.14 to 8.32 |
